Legend:
Type in all cases: cell-based, mouse
neural progenitor cells = assay: Calcium imaging (fluo-4/am) of Ca2+i responses in 1-2 day cultures
Method: Neuronal cultures were prepared from E16 mice and maintained as earlier described (Nedergaard, M., Science 263:1768-1771 (1994), which is hereby incorporated by reference in its entirety). Cytosine arabinoside (20 μM) was added at 48 hr to eliminate proliferating cells. Neural progenitor cells were isolated from E13 mice as previously described (Morshead et al., Neuron 13:1071-82 (1994); Reynolds et al., Science 255:1707-10 (1992), which are hereby incorporated by reference in their entirety). The forebrains were collected in a Ca/Mg-free Hank's buffered saline solution (HBSS) and dissociated in 0.25% trypsin. The cells were resuspended at 4×10^6 cells/ml in DMEM/F12/N2 containing 10 ng/ml bFGF and 10 ng/ml EGF (Sigma, St. Louis, Mo.). The cells were plated at 4 ml/dish into 100 mm suspension culture plates and incubated at 37° C. in 5% CO2. The cells were passaged 2 to 3 times before use.
To test the idea that purinergic signaling is restricted to undifferentiated neural precursor cells, Ca^2+ responses to ATP were first examined as a function of time after plating either neural stem cells or differentiated neurons. Cultured mouse cortical neurons in near-pure neuronal cultures were loaded with fluo-4/am and exposed to either ATP (100 μM) or K^+ (60 mM). […] The responses to ATP fell by day 3 and were absent 9 days after plating. […] By 30 hours after plating, MAP2-defined neurons expressed substantially less P2Y receptor-immunoreactivity than did neighboring, MAP2^− cells (FIG. 1C). By 5 days, P2Y-immunoreactivity was restricted to GFAP^+ astrocytes.
ATP-induced Ca^2+i increments were inhibited by both suramin (100 μM) and reactive blue (RB; 30 μM), two mechanistically-unrelated inhibitors of purinergic signaling (FIG. 1D).

neural stem cells = assay: BrdU incorporation assay (mitotic index); settings: 4 hrs incubation
Method: (§1) For the BrdU incorporation assay, the cultures were incubated for 4 hrs in BrdU (Sigma, 10 μg/ml, 4 hrs), fixed and stained with rat monoclonal anti-BrdU (MAS250C, Harlan Sera-lab, Loughborough, UK; 1:200) and Cy3-conjugated goat anti-rat antibodies (Jackson ImmunoResearch, 1:300). Nuclei were visualized by Sytox (Molecular Probes, Inc.), and the mitotic index was calculated as the ratio of BrdU/Sytox positive nuclei. Limiting dilution analysis was performed as previously described (Keyoung et al., Nature Biotechnology 19:843-850 (2001); Uchida et al., Proc. Natl. Acad. Sci. 97:14720-14725 (2000), which are hereby incorporated by reference in their entirety).
Purinergic signaling has long-term effects on proliferation of numerous cell types, including rapidly replicating transformed cell lines (Burnstock, G., Arterioscler Thromb Vasc Biol 22:364-73 (2002); Michoud et al., Am J Respir Cell Mol Biol 27:732-8 (2002); Sauer et al., J Cell Sci 115:3265-73 (2002); Tu et al., Br J Pharmacol 129:1481-9 (2000), which are hereby incorporated by reference in their entirety). To better define the mitogenic effects of P2Y on neural progenitor cells, the mitogenic effects of ATP, its analogs, and its dephosphorylated metabolites were compared. To this end, BrdU incorporation by neural stem cells was quantified after 4 hrs incubation in each treatment.

neural progenitors = assay: Limiting dilution analysis of dissociated neurospheres; settings: for minimum density at which cells remain viable and expand: low density cultures
Method: as §1
To assess the requirement of P2Y signaling in self-renewal, neurospheres were dissociated to low density cultures and limiting dilution analysis performed, in the presence or absence of either suramin or RB. […] Thus, purinergic receptor activation was required not only for continued proliferation of neural progenitors, but also for survival at low plating densities.

neurospheres = assay: Flow cytometry of S-phase fraction and P27 expression; settings: for P27 expression: suramin 300 μM, RB 40 μM (FIG. 3D); for fraction of cells in S-phase: treated cultures, untreated control 16.4%±1.8%, p<0.001
Method: Cultures were stained for nestin (monoclonal clone Rat 401, IgG1, or rabbit antiserum, Chemicon, Temecula, Calif.; 1:2000), neuronal class III β-tubulin (monoclonal clone TuJ1, IgG2a, Covance, Philadelphia, Pa.; 1:500), MAP-2 (2a+2b) (monoclonal clone AP-20, ascites fluid, Sigma, St. Louis, Mo.; 1:500), Neuronal protein HuC/HuD (monoclonal 16A11, Molecular Probes, Eugene, Oreg.; 15 μg/ml), O4 (monoclonal IgM supernatant; O4 hybridoma, or GFAP (mouse clone GA5, or rabbit antiserum, Sigma; 1:500,), purinergic receptors P2Y1, P2Y2, P2Y4 (polyclonal, Alomone Labs, Jerusalem, Israel, 1:200), p27 (polyclonal, Chemicon, 1:2000), cyclins D1 and E (polyclonal, H-295 and M-20, respectively, Santa Cruz Biotechnology, Santa Cruz, Calif.; 1:100), Secondary antibodies were FITC-conjugated goat anti-mouse IgM (μ-chain specific, Sigma; 1:500), Cy3-conjugated goat-anti-rabbit IgG (H+ L) (1:200), Cy5-conjugated Goat-anti-mouse IgG (H+L) (both from Jackson ImmunoResearch, West Grove, Pa.; 1:100). Nuclei were counter-stained with Sytox Green or propidium iodide (Molecular Probes). P27, cyclin D and cyclin E FACS analyses were performed on an EPICS ELITE ESP flow cytometer/cell sorter (Beckman Coulter), as described (Deptala et al., Int J Oncol 15:861-71 (1999), which is hereby incorporated by reference in its entirety). The analysis of ectonucleotidase activity was adapted from Braun et al., “Expression of the Ecto-ATPase NTPDase2 in the Germinal Zones of the Developing and Adult Rat Brain,” Eur. J. Neurosci. 17:1355-64 (2003), which is hereby incorporated by reference in its entirety. Cryostat sections from paraformaldehyde-perfused animals were utilized. All experiments used either inosine diphosphate (IDP), adenosine diphosphate (ADP), or adenosine triphosphate (ATP) as substrate (1 mM), whereas substrate was omitted from controls.
The inhibition of proliferation afforded by suramin and RB was reversible. The percentage of cells in S-phase recovered by 50% at 8 h and by 80% at 24 hr after wash-out of the drugs.

neural spheres = assay: Lineage potential by clonal expansion and immunostaining; settings: 5 day exposure, then 7 days without inhibitors
Method: Cultures were stained for nestin (monoclonal clone Rat 401, IgG1, or rabbit antiserum, Chemicon, Temecula, Calif.; 1:2000), neuronal class III β-tubulin (monoclonal clone TuJ1, IgG2a, Covance, Philadelphia, Pa.; 1:500), MAP-2 (2a+2b) (monoclonal clone AP-20, ascites fluid, Sigma, St. Louis, Mo.; 1:500), Neuronal protein HuC/HuD (monoclonal 16A11, Molecular Probes, Eugene, Oreg.; 15 μg/ml), O4 (monoclonal IgM supernatant; O4 hybridoma, or GFAP (mouse clone GA5, or rabbit antiserum, Sigma; 1:500,), purinergic receptors P2Y1, P2Y2, P2Y4 (polyclonal, Alomone Labs, Jerusalem, Israel, 1:200), p27 (polyclonal, Chemicon, 1:2000), cyclins D1 and E (polyclonal, H-295 and M-20, respectively, Santa Cruz Biotechnology, Santa Cruz, Calif.; 1:100), Secondary antibodies were FITC-conjugated goat anti-mouse IgM (μ-chain specific, Sigma; 1:500), Cy3-conjugated goat-anti-rabbit IgG (H+ L) (1:200), Cy5-conjugated Goat-anti-mouse IgG (H+L) (both from Jackson ImmunoResearch, West Grove, Pa.; 1:100). Nuclei were counter-stained with Sytox Green or propidium iodide (Molecular Probes). P27, cyclin D and cyclin E FACS analyses were performed on an EPICS ELITE ESP flow cytometer/cell sorter (Beckman Coulter), as described (Deptala et al., Int J Oncol 15:861-71 (1999), which is hereby incorporated by reference in its entirety). […]

| SMILES | inhibition of ATP-induced Ca2+i increments (neural progenitor cells; reactive blue 30 μM) | proliferation (BrdU incorporation) (neural stem cells) | minimum density at which cells remain viable and expand (neural progenitors) | survival at low plating densities (neural progenitors) | P27 expression (neurospheres) | fraction of cells in S-phase (neurospheres) | lineage potential of exposed progenitor cells (neural spheres) | inhibition of ATP-induced Ca2+i increments (neural progenitor cells; suramin 100 μM) |
| --- | --- | --- | --- | --- | --- | --- | --- | --- |
| Nc1c(S(=O)(=O)O)cc(Nc2ccc(Nc3nc(Cl)nc(Nc4cccc(S(=O)(=O)O)c4)n3)c(S(=O)(=O)O)c2)c2c1C(=O)c1ccccc1C2=O [RB, reactive blue 2] | inhibited | inhibited proliferation in a dose-dependent manner | increased the minimum density | died by 5 days in vitro | rose more strongly | 5.7±0.3% | neither suramin nor RB restricted the lineage potential | – |
| Cc1ccc(C(=O)Nc2ccc(S(=O)(=O)O)c3cc(S(=O)(=O)O)cc(S(=O)(=O)O)c23)cc1NC(=O)c1cccc(NC(=O)Nc2cccc(C(=O)Nc3cc(C(=O)Nc4ccc(S(=O)(=O)O)c5cc(S(=O)(=O)O)cc(S(=O)(=O)O)c45)ccc3C)c2)c1 [suramin] | – | inhibited proliferation in a dose-dependent manner | increased the minimum density | died by 5 days in vitro | increase in the tumor suppressor P27 | 8.4±2.3% | neither suramin nor RB restricted the lineage potential | inhibited |

— patent US7829332B2, “Purines are self-renewal signals for neural stem cells, and purine receptor antagonists promote neuronal and glial differentiation therefrom” (Cornell Research Foundation, Inc., priority 2004, dated 2010)
